Numbers after ± are expanded uncertainties.
How the values were obtained:
[1] = mn = molality of the nth substance listed, in mol/kg; settings: 101 kPa, Liquid; for speed of sound: Frequency=1.999 MHz, Sing-around technique in a fixed-path interferometer; for mass density: Vibrating tube method
[2] = 101 kPa, Liquid, Frequency=1.999 MHz, Sing-around technique in a fixed-path interferometer

speed of sound ([1]; 288.15 K, m1 = 0.3) | mass density ([1]; 288.15 K, m1 = 0.3) | speed of sound ([1]; 293.15 K, m1 = 0.3) | mass density ([1]; 293.15 K, m1 = 0.3) | speed of sound ([1]; 298.15 K, m1 = 0.3) | speed of sound ([1]; 303.15 K, m1 = 0.3) | mass density ([1]; 303.15 K, m1 = 0.3) | speed of sound ([1]; 308.15 K, m1 = 0.3) | speed of sound ([1]; 313.15 K, m1 = 0.3) | mass density ([1]; 313.15 K, m1 = 0.3) | speed of sound ([1]; 318.15 K, m1 = 0.3) | mass density ([1]; 318.15 K, m1 = 0.3) | mass density ([1]; 298.15 K, m1 = 0.3) | mass density ([1]; 308.15 K, m1 = 0.3) | speed of sound ([2]; 298.15 K) | speed of sound ([2]; 308.15 K) | speed of sound ([2]; 313.15 K) | speed of sound ([1]; 298.15 K, m2 = 0) | speed of sound ([1]; 308.15 K, m2 = 0) | speed of sound ([1]; 313.15 K, m2 = 0) | SMILES
1510.3 ± 10 m/s | 1024.7 ± 2 kg/m3 | 1518.6 ± 10 m/s | 1022.7 ± 2 kg/m3 | 1529.1 ± 10 m/s | 1540 ± 10 m/s | 1019.2 ± 2 kg/m3 | 1551.9 ± 10 m/s | 1563 ± 10 m/s | 1014.9 ± 2 kg/m3 | 1573.4 ± 10 m/s | 1012.6 ± 2 kg/m3 |  |  |  |  |  |  |  |  | [Cl-].[Cl-].[Mg+2] [magnesium chloride] + O
1482.9 ± 10 m/s | 1019.9 ± 2 kg/m3 | 1500.8 ± 10 m/s | 1018.1 ± 2 kg/m3 | 1518.4 ± 10 m/s | 1537.8 ± 10 m/s | 1013.5 ± 2 kg/m3 | 1548.6 ± 10 m/s | 1558.8 ± 10 m/s | 1006.1 ± 2 kg/m3 | 1568 ± 10 m/s | 1003.4 ± 2 kg/m3 | 1016.9 ± 2 kg/m3 | 1008.5 ± 2 kg/m3 |  |  |  |  |  |  | [Cl-].[K+] [potassium chloride] + O
 |  |  |  |  |  |  |  |  |  |  |  |  |  | 1496.5 ± 10 m/s | 1519.4 ± 10 m/s | 1528.9 ± 10 m/s |  |  |  | O [water]
 |  |  |  |  |  |  |  |  |  |  |  |  |  |  |  |  | 1496.5 ± 10 m/s | 1519.4 ± 10 m/s | 1528.9 ± 10 m/s | O [water] + C[N+](C)(C)CC(=O)[O-]
